{"source": "patent US20080275015A1", "about": "“Formulation and Method for Treating Interstitial Cystitis and Related Bladder Conditions” (priority 2007, published 2008)", "origin": "cited, not measured here", "conditions": "oral prescription for interstitial cystitis; standard dosing 100 mg three times daily"}
{"substance": "pentosan polysulfate sodium [Elmiron]", "values": [{"measurement": "cases in which treatment has been shown to be effective", "value": 30, "unit": "%"}]}
